Source: article PMC12592173, “Targeted degradation of EGFR 19Del by PROTACs suppresses tumor growth in non-small-cell lung cancer” (Frontiers in Pharmacology, 2025)
Where “and” joins values, the source holds several entries; their conditions need not be identical. Identical values can stand only once. Entries after “also recorded” stand apart in the source; their conditions may differ. Like-named read-outs stand apart in the source and are kept apart here.

Tests used:
[1] = system: EGFR^Del19; settings: HCC827 cells; ref Zhao et al., 2022; cited from earlier work
[2] = system: HCC827 cells; settings: ref Zhao et al., 2022; cited from earlier work
[3] = biological target: T1, EGFR^Del19 (Homo sapiens, UniProt P00533+Q96SW2, DEL746-750); assay: Western blot of EGFR degradation in HCC827 cells; format: cell-based; parameters: host or cells: HCC827; settings: for EGFR protein remaining under cycloheximide: HCC827, cycloheximide 100 μg/mL + 10 nM compound
Experimental: HCC827 and H1975 cell lines were purchased from ATCC (United States) and cultured according to the manuals. Cells were grown in monolayers in appropriate media supplemented with 10% fetal bovine serum and 1% antibiotic/antimycotic solution.
(§1) Cells at 70%–90% confluence were lysed in RIPA buffer with complete protease inhibitor cocktail (Roche Applied Science, Penzberg, Germany). Lysates were quantified, separated on SDS-PAGE gels, and transferred onto PVDF membranes, followed by the blockade with 5% milk in TBS+ 0.1% Tween-20 buffer for 1 h at room temperature. The following primary antibodies were used: anti-EGFR (1:50000, ABclonal Technology, Wuhan, China), anti-pEGFR (Tyr1068, […], Cell Signaling Technology, MA, United States), anti-AKT (1:10000, ABclonal Technology, Wuhan, China), anti-pAKT (1:10000, ABclonal Technology, Wuhan, China), and anti-β-actin (1:10000, ABclonal Technology, Wuhan, China). Protein bands were detected using Tanon High-signal ECL Western Blotting Substrate (Tanon Science and Technology Co., Ltd., Shanghai, China). The band density of the protein of interest was quantified using ImageJ.

[4] = biological target: T1, EGFR^Del19; assay: Western blot of dissected HCC827 xenograft tumors; format: in vivo, mouse; parameters: from tissue; host or cells: HCC827 xenograft tumours in female BALB/c nude mice; settings: 30 mg/kg intraperitoneal
Experimental: as §1
Female BALB/c nude mice (5–6 weeks old) were purchased from Changzhou Cavens Laboratory Animal Co., Ltd. (China) and housed under pathogen-free conditions. HCC827 cells (5 × 10^6) suspended in 150 μL PBS were inoculated subcutaneously on the left flank of the mouse. When tumor volume reached an average of 70–80 mm^3, mice were randomly assigned to two groups (three mice in each group). […] The tumor volume was calculated as follows: tumor volume (mm^3) = (length × width^2)/2. […]

[5] = system: HCC827 cells; assay: Cell viability (CCK-8) in HCC827 cells; format: cell-based, human; settings: for IC50: Homo sapiens, CCK-8
Experimental: (§2) The viability of cells was determined using Cell Counting Kit-8 (CCK-8; Dojindo), and IC50 was calculated using GraphPad Prism (version 6.0). For colony formation assays, cells (1 × 10^3 cells/well) seeded in 24-well plates were treated with different concentrations of compounds and replaced with fresh media with compounds every 4 days. After 7 days, the cells were washed with PBS, fixed with methanol, and stained with 0.1% crystal violet solution.

[6] = biological target: T2, EGFR^L858R (Homo sapiens, UniProt P00533, L858R); assay: Western blot of EGFR degradation in Ba/F3 cells stably expressing EGFR^L858R; format: cell-based; settings: 24 h
T2 construct: expressed in transfected cells; host or cells: Ba/F3 (lentiviral pLVX-EGFR^L858R, puromycin selected)
Experimental: HCC827 and H1975 cell lines were purchased from ATCC (United States) and cultured according to the manuals. Cells were grown in monolayers in appropriate media supplemented with 10% fetal bovine serum and 1% antibiotic/antimycotic solution. Ba/F3 cells stably expressing EGFR^L858R were obtained by infection with lentivirus produced by co-transfection of pLVX-EGFR^L858R, psPAX2, and pMD2.G into 293T cells, followed by selection with puromycin.
as §1

[7] = Mouse weights in HCC827 xenograft study; format: in vivo; settings: 30 mg/kg intraperitoneal, repeated and one-time dosing
Experimental: (§3) Female BALB/c nude mice (5–6 weeks old) were purchased from Changzhou Cavens Laboratory Animal Co., Ltd. (China) and housed under pathogen-free conditions. HCC827 cells (5 × 10^6) suspended in 150 μL PBS were inoculated subcutaneously on the left flank of the mouse. When tumor volume reached an average of 70–80 mm^3, mice were randomly assigned to two groups (three mice in each group). Compound 14 (30 mg/kg, dissolved in 40% PEG 400 and 5% Tween-80) or vehicle (40% PEG 400 and 5% Tween-80) was administered to mice via intraperitoneal injection every 2 days for 21 days. The tumor volume was calculated as follows: tumor volume (mm^3) = (length × width^2)/2. All animal experiments were approved by the Ethics Committee for laboratory animals, The Nanjing Han & Zaenker Cancer Institute (File number: OGKQSPF/SQ-112).

[8] = biological target: T3, EGFR^L858R/T790M protein (Homo sapiens, UniProt P00533, L858R/T790M); assay: Immunoblots of EGFR in H1975 cells; format: cell-based; settings: H1975 cell line, up to 1 μM, 24 h
T3 construct: nor the EGFR^L858R/T790M protein in the H1975 cell line, up to 1 μM; host or cells: H1975
Experimental: as §1

[9] = system: HCC827 cells; assay: Colony formation assay in HCC827 cells; format: cell-based, human; settings: HCC827, 7 days
Experimental: as §2, with “Cells (5 × 10^3 for 48 h or 1 × 10^3 for 96 h) were seeded in 96-well plates, allowed to attach overnight, and then incubated with various concentrations of compounds for 48 h or 96 h. The” for “The”

[10] = system: HeLa cells; assay: Cell viability (CCK-8) in HeLa cells; format: cell-based; settings: up to 1 μM, 96 h
Experimental: as §2, with “Cells (5 × 10^3 for 48 h or 1 × 10^3 for 96 h) were seeded in 96-well plates, allowed to attach overnight, and then incubated with various concentrations of compounds for 48 h or 96 h. The” for “The”

[11] = biological target: EGFR^WT protein (Homo sapiens, UniProt P00533); assay: Immunoblots of EGFR in H1299, H460 and HeLa cells; format: cell-based; settings: H1299, H460 and HeLa cell lines, up to 1 μM, 24 h
Experimental: as §1

[12] = system: HCC827 cells; assay: Apoptosis assay (Annexin V-FITC/PI, flow cytometry); format: cell-based, human; settings: HCC827, 10 nM, 48 h
Source text: The percentage of apoptotic cells in total cells was designated as the apoptotic index.

[13] = system: H1299 cells; assay: Cell viability (CCK-8) in H1299 cells; format: cell-based; settings: up to 1 μM, 96 h
Experimental: as §2, with “Cells (5 × 10^3 for 48 h or 1 × 10^3 for 96 h) were seeded in 96-well plates, allowed to attach overnight, and then incubated with various concentrations of compounds for 48 h or 96 h. The” for “The”

[14] = system: HCC827 human tumor xenograft; assay: HCC827 xenograft tumor growth in BALB/c nude mice; format: in vivo, mouse
Experimental: as §3, with “Compound 14 (30 mg/kg, dissolved in 40% PEG 400 and 5% Tween-80) or vehicle (40% PEG 400 and 5% Tween-80) was administered to mice via intraperitoneal injection every 2 days for 21 days.” left out

[15] = system: pEGFR and pAKT; assay: Western blot of downstream signaling in HCC827 cells; format: cell-based, human
Experimental: as §1

[16] = system: H1975 cells; assay: Cell viability (CCK-8) in H1975 cells; format: cell-based; settings: up to 1 μM, 96 h
Experimental: as §2, with “Cells (5 × 10^3 for 48 h or 1 × 10^3 for 96 h) were seeded in 96-well plates, allowed to attach overnight, and then incubated with various concentrations of compounds for 48 h or 96 h. The” for “The”

C=CC(=O)N1CCC[C@H](n2c(Nc3ccccc3)nc3cnc(Nc4ccc(N5CCN(CCCCCCCC(=O)N[C@H](C(=O)N6C[C@H](O)C[C@H]6C(=O)N[C@@H](C)c6ccc(-c7scnc7C)cc6)C(C)(C)C)CC5)cc4)nc32)C1 [CP17]
DC50 [1]: 0.49 nM
IC50 [2]: 1.6 nM

COc1cc2c(Nc3ccc(F)c(Cl)c3)ncnc2cc1OCCCN1CCN(CCN2CCN(c3ccc4c(c3)C(=O)N(C3CCC(=O)NC3=O)C4=O)CC2)CC1 (stereo not drawn) [Compound 14]
EGFR degradation (%) ([3]; 10 nM, HCC827, 24 h, average of two independent experiments, NA = not active): 66.3% ± 3.5% and 66.3 ± 3.5%
EGFR protein remaining under cycloheximide ([3]; 4 h): 34.5%
EGFR protein remaining under cycloheximide ([3]; 8 h): 12.5%
Earliest time at which EGFR^Del19 degradation observed ([3]; HCC827 cells, 10 nM): 2 h
Dmax at 0.01 µM ([3]; HCC827 cells, 10 nM, after 24 h of incubation, read-out: Maximum degradation (Dmax) in time course): 85%
Duration of sustained EGFR^Del19 degradation ([3]; HCC827 cells, 10 nM, continuous incubation): 96 h
Duration of EGFR^Del19 reduction after compound removal ([3]; HCC827 cells, 8 h incubation with 10 nM, then washout): over 72 h
Degradation of EGFR^Del19 compared with MS154 ([3]; HCC827 cells, 24 h): remarkable improvements
Dmax ([3]; HCC827 cells, 24 h, dose-response): 91.2%
DC50 ([3]; HCC827 cells, 24 h treatment): 0.26 nM and 0.261 nM
EGFR^Del19 protein in tumors in vivo [4]: effectively degraded
Proliferation after compound removal ([5]; HCC827, 10 nM for 8 h, washed, fresh media 24-96 h): almost completely stopped proliferating; also recorded: completely ceased proliferation
IC50 ([5]; HCC827, 48 h, HCC827, 48 h incubation): ~8.29 nM
IC50 ([5]; HCC827, 96 h, HCC827, 96 h incubation): 4.91 nM
Proliferation of HCC827 cells versus control vehicle ([5]; different concentrations): markedly attenuated the proliferation
DC50 ([6]; Ba/F3 cells stably expressing EGFR^L858R): 20.6 nM
Degradation of EGFR^L858R compared with MS154 ([6]; Ba/F3 cells): remarkable improvements
Signs of wasting (mouse weights) [7]: None of the mice showed signs of wasting
Degradation of EGFR^L858R/T790M protein [8]: neither compound degraded
Colony formation [9]: fewer and smaller colonies
Effect on viability [10]: not affecting the viability; also recorded: did not affect the viability
Degradation of EGFR^WT protein [11]: no effect; also recorded: neither compound degraded; also recorded: No significant degradation
Increase in the number of apoptotic cells [12]: at least a two-fold increase
Effect on viability [13]: not affecting the viability; also recorded: did not affect the viability
Mean tumor volume ([14]; 30 mg/kg intraperitoneal every 2 days for 21 days): 56.58 ± 10.91 mm^3
Mean tumor volume inhibition ([14]; one-time intraperitoneal injection 30 mg/kg, 18 days after treatment, versus vehicle): 79%
Levels of pEGFR and pAKT [15]: markedly reduced; also recorded: more marked decreases
Effect on viability [16]: not affecting the viability; also recorded: did not affect the viability
